# Results reported in PMC5003785, “An unusual UMP C-5 methylase in nucleoside antibiotic polyoxin biosynthesis” (Protein & Cell, 2016).
# T1: ThyX (Streptomyces asoensis, UniProt M1ETU3)
# T1 construct: gene thyX_2; recombinant
# T1 sequence (M1ETU3 1-246): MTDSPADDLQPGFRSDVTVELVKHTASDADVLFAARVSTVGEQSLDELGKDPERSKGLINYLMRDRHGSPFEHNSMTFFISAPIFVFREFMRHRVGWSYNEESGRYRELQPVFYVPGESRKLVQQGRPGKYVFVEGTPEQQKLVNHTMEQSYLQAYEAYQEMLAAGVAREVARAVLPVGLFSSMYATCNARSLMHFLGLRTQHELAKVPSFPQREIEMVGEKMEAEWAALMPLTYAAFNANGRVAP
# B1: PolB (Streptomyces asoensis) (protein)
# chain: MESPRIELRSDITVELVDSSASDLAVVKAARVSTAGEDANDELYDGGSTRGLIRYLMRSRHGSPFEHNSMTFLVRAPIFTVRHLMRHRTWSFNEESARYREVGAAFYVPDATRLLRQEGKPGDYRYVGGSTDDHQQVVRSATRAYEVAFEEYQRLLDSGIAREIARLVLPVSTYSVLYATCNARALMHFLSLRTHRPDAAYVSHPQREIEMVAEQMETAWAKLMPVTHEAFTAFGRVSP
# notes: N-terminal His6-tagged, expressed in E. coli BL21(DE3); FAD-containing; homotetramer
# Assays:
# PolB = biological target: T2, PolB (Streptomyces asoensis, UniProt C1IC19); assay: crystal structure; type: binding
# T2 construct: N-terminal His6-tagged, expressed in E. coli BL21(DE3); FAD-containing; homotetramer
# SVIThyX2 = biological target: T3, SVIThyX2 (Streptomyces viridochromogenes, UniProt D9X6S9); assay: LC-MS methylation assay; type: biochemical; conditions: NADPH, CH2H4folate; 50 mmol/L Tris-HCl pH 8.0
# T3 construct: gene thyX
# T3 sequence (D9X6S9 entry or part of it): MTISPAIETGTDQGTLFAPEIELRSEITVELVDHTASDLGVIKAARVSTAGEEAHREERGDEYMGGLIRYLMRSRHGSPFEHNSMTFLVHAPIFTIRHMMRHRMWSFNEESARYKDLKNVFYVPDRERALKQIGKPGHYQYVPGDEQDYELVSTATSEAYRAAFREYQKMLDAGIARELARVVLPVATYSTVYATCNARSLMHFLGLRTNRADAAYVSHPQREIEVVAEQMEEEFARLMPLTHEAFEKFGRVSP
# ThyX = biological target: T1, ThyX; assay: LC-MS methylation assay; type: biochemical; conditions: NADPH, CH2H4folate; 50 mmol/L Tris-HCl pH 8.0
# [1] = biological target: PolB from S. cacaoi (UMP C-5 methylase with thymidylate synthase activity) (S. cacaoi); assay: crystal structure; PolB with 4 mmol/L 5-Br dUMP; 1.4 mol/L sodium acetate, 0.1 mol/L sodium cacodylate pH 6.5, 20°C
# [2] = biological target: PolB from S. cacaoi (UMP C-5 methylase with thymidylate synthase activity) (S. cacaoi); assay: crystal structure; apo-PolB, space group P2(1), two tetramers in the asymmetric unit; 17% PEG4000, 0.2 mol/L Li2SO4, 0.1 mol/L Tris-HCl pH 8.5, 20°C
# methylation kinetics [3] = substrate: O=c1ccn([C@@H]2O[C@H](COP(=O)(O)O)[C@@H](O)[C@H]2O)c(=O)[nH]1; assay: methylation kinetics; type: biochemical, Streptomyces asoensis; conditions: NADPH and CH2H4folate co-substrates, assay buffer 50 mmol/L Tris-HCl pH 8.0
# methylation kinetics [4] = substrate: O=c1ccn([C@H]2C[C@H](O)[C@@H](COP(=O)(O)O)O2)c(=O)[nH]1; assay: methylation kinetics; type: biochemical, Streptomyces asoensis; conditions: NADPH and CH2H4folate co-substrates, assay buffer 50 mmol/L Tris-HCl pH 8.0
molecule,measurement,setting,value
O=c1[nH]c(=O)n([C@@H]2O[C@H](COP(=O)(O)O)[C@@H](O)[C@H]2O)cc1Br [5-Br UMP],crystal structure,"PolB; 1.76 Å, substrate analog in active site",structures in complex with substrate analogs 5-Br dUMP and 5-Br UMP
O=c1[nH]c(=O)n([C@H]2C[C@H](O)[C@@H](COP(=O)(O)O)O2)cc1Br [5-Br dUMP],crystal structure,"PolB; 2.28 Å, substrate analog in active site, stacked on FAD isoalloxazine",structures in complex with substrate analogs 5-Br dUMP and 5-Br UMP
Cc1cc2nc3c(=O)[nH]c(=O)nc-3n(C[C@H](O)[C@H](O)[C@H](O)COP(=O)(O)OP(=O)(O)OC[C@H]3O[C@@H](n4cnc5c(N)ncnc54)[C@H](O)[C@@H]3O)c2cc1C [FAD],crystal structure,PolB; bound flavin in the 5-Br dUMP complex,5-Br dUMP poses strong π-π interaction with the isoalloxazine moiety of FAD
O=c1ccn([C@@H]2O[C@H](COP(=O)(O)O)[C@@H](O)[C@H]2O)c(=O)[nH]1 [UMP],LC-MS methylation assay,SVIThyX2,SVIThyX2 was able to catalyze the methylation for both UMP and dUMP
O=c1ccn([C@H]2C[C@H](O)[C@@H](COP(=O)(O)O)O2)c(=O)[nH]1 [dUMP],LC-MS methylation assay,SVIThyX2,SVIThyX2 was able to catalyze the methylation for both UMP and dUMP
same,LC-MS methylation assay,ThyX,recombinant S. cacaoi ThyX could catalyze the methylation of dUMP but not UMP
PolB from S. cacaoi (UMP C-5 methylase with thymidylate synthase activity) (enzyme),stoichiometry N,[1],4
same,stoichiometry N,[2],4
B1,Km,methylation kinetics [3],19.48 ± 4.15 µmol/L
same,kcat,methylation kinetics [3],3.09 ± 0.17 min⁻¹
same,Km,methylation kinetics [4],12.96 ± 0.89 µmol/L
same,kcat,methylation kinetics [4],1.74 ± 0.05 min⁻¹
